Data from patent US20230416239A1, “COMPOUNDS AND METHODS FOR TREATING A CYTOKINE-MEDIATED DISEASE” (CONSERVATOIRE NATIONAL DES ARTS ET MÉTIERS, priority 2020, published 2023).

Assays:
TNFa/TNFRI interaction = TNFa/TNFRI interaction (Homo sapiens, UniProt P01375); assay: TNFa/TNFRI interaction displacement test; type: binding; details: for Displacement (%): compounds at 50 μM, human TNFRI 100 ng/ml;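 for Displacement EC50 TNFa in presence of compound: Difference: SPD304 reference at 20 µM final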
Summary of the method: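 Plates coated overnight at 4° C with human TNFRI (100 ng/ml) and blocked with 2% BSA, then test mixtures were incubated overnight at 4° C. Bound cytokine detected with biotinylated anti-cytokine antibody (2 h, 37° C) and avidin-HRP, read as OD at 450 nm.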

IL-13 = IL-13 (Homo sapiens, UniProt P35225); assay: Immunoassay binding test, IL-13; details: for IC50: IL-13 400 ng/ml, receptor 100 ng/ml, read-out: BINDING IL13 IC50
Sequence of IL-13 (P35225 25-146, species assumed): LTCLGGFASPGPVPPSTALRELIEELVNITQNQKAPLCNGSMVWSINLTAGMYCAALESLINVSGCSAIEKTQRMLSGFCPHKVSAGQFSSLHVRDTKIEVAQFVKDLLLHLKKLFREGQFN
Summary of the method: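 Receptor-coated plates; compounds (100 to 0.78 μM final) preincubated 2 h at 37° C with fixed cytokine, then bound to receptor overnight at 4° C. Bound cytokine detected with biotinylated anti-cytokine antibody and avidin-HRP, OD 450 nm.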

IL-6 = IL-6 (Homo sapiens, UniProt P05231); assay: Immunoassay binding test, IL-6 (gp130 receptor, IL-6Ra present); details: IL-6Ra 200 ng/ml
Sequence of IL-6 (P05231 30-212, species assumed): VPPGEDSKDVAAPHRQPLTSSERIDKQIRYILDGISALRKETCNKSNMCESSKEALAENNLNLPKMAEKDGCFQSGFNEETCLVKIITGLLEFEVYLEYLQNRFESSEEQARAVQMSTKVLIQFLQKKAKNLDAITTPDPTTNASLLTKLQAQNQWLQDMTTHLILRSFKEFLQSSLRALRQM
Summary of the method: (§1)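 Detection used OD at 450 nm after biotinylated anti-cytokine antibody and avidin-HRP were applied to receptor-coated wells. Those wells had received, overnight at 4 °C, cytokine preincubated 2 h at 37 °C with compound at final 100 to 0.78 μM. IL-6 mixtures further contained IL-6Ra at 200 ng/ml final.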

IL-4 = biological target: T1, IL-4 (Homo sapiens, UniProt P05112); assay: Immunoassay binding test, IL-4; details: for IC50: IL-4 400 ng/ml, receptor 100 ng/ml, read-out: BINDING IL4 IC50
T1 sequence (P05112 25-153): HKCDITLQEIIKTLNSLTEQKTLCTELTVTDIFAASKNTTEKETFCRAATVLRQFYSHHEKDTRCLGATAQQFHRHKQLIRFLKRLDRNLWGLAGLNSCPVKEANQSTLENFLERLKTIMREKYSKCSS
Summary of the method: as §1

TNFα = TNFα (Homo sapiens, UniProt P01375); assay: Immunoassay binding test, TNFa; details: compounds 100 to 0.78 μM; TNFα 10 ng/ml, receptor 100 ng/ml; read-out: BINDING TNF IC50
Sequence of TNFα (P01375 77-233 limits assumed, species assumed): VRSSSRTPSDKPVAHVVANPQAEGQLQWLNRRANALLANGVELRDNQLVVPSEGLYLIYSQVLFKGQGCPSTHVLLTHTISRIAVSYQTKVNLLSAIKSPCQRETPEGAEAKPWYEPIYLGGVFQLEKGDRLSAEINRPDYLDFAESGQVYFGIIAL
Summary of the method: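 ELISA-type binding test: receptor-coated plates blocked with 2% BSA, then cytokine (six-point dilution series) preincubated 2 h at 37 °C and bound overnight at 4 °C. Detection used biotinylated anti-cytokine antibody and avidin-HRP, read as OD at 450 nm. For IL-6, IL-6Ra was present at 200 ng/ml final.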

[1] = system: hepatic shock induced by LPS/D-Galactosamine; assay: LPS/D-Galactosamine induced lethal shock; type: in vivo, Balb/C mice; details: 5 mg force-fed in DMSO eight hours before LPS/D-Galactosamine i.p.; 48 hours
Experimental: 7 week-old Balb/C mice (n=10 per group) were force-fed with 100 μl of a solution of DMSO containing 5 mg of compounds 33, 65 or 71 eight hours before receiving an intraperitoneal injection of 200 μl of PBS containing 0.2 μg of LPS and 20 mg of D-Galactosamine. A negative control group (vehicle) was force-fed with 100 μl of a solution of DMSO alone eight hours before to be injected with 200 μl of LPS/D-Galactosamine solution. Mice survival was monitored for 48 hours after the injection of LPS/D-Galactosamine.

Sequence of TNFa/TNFRI interaction (P01375 77-233 limits assumed): as the sequence (P01375 77-233 limits assumed, species assumed) above

Compound | Displacement (%) (TNFa/TNFRI interaction) | BINDING IL13 % Neutra at 100 μM (IL-13) | IC50 (IL-13) | BINDING IL6 % Neutra at 100 μM (IL-6) | BINDING IL4 % Neutra at 100 μM (IL-4) | IC50 (IL-4) | IC50 (TNFα) | survival [1] | Displacement EC50 TNFa in presence of compound: Difference (TNFa/TNFRI interaction; Compound EC50 minus SPD304 EC50)
CN(CCOCCN(Cc1cccnc1F)Cc1cn(S(=O)(=O)c2ccccc2)c2ccccc12)C1CCCCC1 [Compound 65, N-(2-(2-(((2-fluoropyridin-3-yl)methyl)((1-(phenylsulfonyl)-1H-indol-3-yl)methyl)amino)ethoxy)ethyl)-N-methylcyclohexanamine] | 224% | 79.3% | > 50 µM | 0% | 86.5% | 5.5 µM | 5.9 µM | 60% | –
O=S(=O)(c1ccccc1)n1cc(CN(CCCCCNC2CCCCC2)Cc2ccncc2)c2ccccc21 [Compound 33] | 273% | 95.4% | 10.5 µM | −11.8% | 96% | 4.1 µM | 4.6 µM | 100% | 0.0116 µg/mL
O=S(=O)(c1ccccc1)n1cc(CN(CCCCNC2CCCC2)Cc2cccnc2F)c2ccccc21 [Compound 71, N′-cyclopentyl-N^4-((2-fluoropyridin-3-yl)methyl)-N^4-((1-(phenylsulfonyl)-1H-indol-3-yl)methyl)butane-1,4-diamine] | 199% | 89.7% | > 50 µM | 2% | 92.4% | 6 µM | 9.8 µM | 60% | –
FC(F)(F)c1cccc(-n2cc(CN(CCNC3CCCCC3)Cc3ccncc3)c3ccccc32)c1 [Compound 29] | 103% | 86.8% | > 50 µM | 17.3% | 96.4% | 6.2 µM | 18.3 µM | – | –
CCCN(CCOCCN(Cc1cccnc1F)Cc1cn(S(=O)(=O)c2ccccc2)c2ccccc12)C1CCCC1 [Compound 108, N-(2-(2-(((2-fluoropyridin-3-yl)methyl)((1-(phenylsulfonyl)-1H-indol-3-yl)methyl)amino)ethoxy)ethyl)-N-propylcyclopentanamine] | 165% | 58.8% | 40.4 µM | 0% | 76.7% | 9.1 µM | 9.6 µM | – | –
